Where a name gives a salt, the structure may show the parent alone.
Tested on: MTT (mouse pheochromocytoma)
Assay: IC50 of cell viability (ATP content)
Conditions: (24 or 48 h)
Outline: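 Library compounds were tested at 8 final concentrations (0.5 nM to 46 µM) on MTT mouse pheochromocytoma cells for 24 or 48 hrs, with readout by CellTiter-Glo ATP luminescence. Signals were normalised with positive-control wells at 100% and DMSO wells at 0%. IC50 values were obtained by a four-parameter logistic fit.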

Row | SMILES | IC50 of cell viability
1 | Cl.O=C(COc1ccc(Cl)cc1)N1CCN(Cc2ccc3c(c2)OCO3)CC1 [FIPEXIDE HYDROCHLORIDE] | > 46 µM
2 | O=C(NCC1CCCCN1)c1cc(OCC(F)(F)F)ccc1OCC(F)(F)F (stereo not given) [FLECAINIDE] | > 46 µM
3 | CN1CCN(c2c(F)cc3c(=O)c(C(=O)O)cn(CCF)c3c2F)CC1 [FLEROXACIN] | > 46 µM
4 | CCC(=O)c1c(O)cc(O)cc1O [FLOPROPIONE] | > 46 µM
5 | COc1ccccc1N1CCN(CCCC(=O)c2ccc(F)cc2)CC1 [FLUANISONUM] | > 46 µM
6 | Cc1onc(-c2c(F)cccc2Cl)c1C(=O)NC1C(=O)N2C1SC(C)(C)C2C(=O)[O-].O.[Na+] (stereo not given) [FLUCLOXACILLIN MAGNESIUM] | > 46 µM
7 | OC(Cn1cncn1)(Cn1cncn1)c1ccc(F)cc1F [FLUCONAZOLE] | > 46 µM
8 | CCOC(=O)c1ncn2c1CN(C)C(=O)c1cc(F)ccc1-2 [FLUMAZENIL] | > 46 µM
9 | CC1CCC2=C3N1\C=C(C(O)=O)/C(=O)C3=CC(=C2)F (stereo not given) [FLUMEQUINE] | > 46 µM
10 | Fc1ccc(C(c2ccc(F)cc2)N2CCN(C/C=C/c3ccccc3)CC2)cc1 [FLUNARIZINE] | > 46 µM
11 | CC12C=CC(=O)C=C1[C@@H](F)CC1C2C(O)CC2(C)C1CC[C@]2(O)C(=O)CO (stereo not given in full) [FLUPREDNISOLONE] | > 46 µM
12 | FC(F)(F)COCC(F)(F)F [FLUROTYLUM] | > 46 µM
13 | c1ccc(OCc2ccc(CCCN3CCOCC3)cc2)cc1 [FOMOCAINUM] | > 46 µM
14 | C[C@]12CCC(=O)C(=O)C1CC[C@@H]1[C@@H]2CC[C@]2(C)C(=O)CC[C@@H]12 (stereo not given in full) [FORMESTANUM] | > 46 µM
15 | CC(C)CN(C[C@@H](OP(=O)([O-])[O-])[C@H](Cc1ccccc1)NC(=O)O[C@@H]1CCOC1)[S+](=O)([O-])c1ccc(N)cc1 [FOSAMPRENAVIR CALCIUM] | > 46 µM
16 | O=C([O-])P(=O)([O-])[O-].[Na+].[Na+].[Na+] [FOSCARNET SODIUM] | > 46 µM
17 | CC1OC1P(=O)([O-])[O-].[Ca+2] (stereo not given) [FOSFOMYCIN] | > 46 µM
18 | O=C(O)c1ccccc1OP(=O)(O)O [FOSFOSAL] | > 46 µM
19 | O=P(O)(O)OC[C@H]1O[C@](O)(COP(=O)(O)O)[C@@H](O)[C@@H]1O [FOSFRUCTOSUM] | > 46 µM
20 | CCC(=O)O[C@@H](OP(=O)(CCCCc1ccccc1)CC(=O)N1C[C@H](C2CCCCC2)C[C@H]1C(=O)[O-])C(C)C (stereo not given in full) [FOSINOPRIL SODIUM] | > 46 µM
21 | N[C@@H](CSCCCO)C(=O)O [FUDOSTEINE] | > 46 µM
22 | COC1C(OC(=O)/C=C/C=C/C=C/C=C/C(=O)O)CCC2(CO2)C1C1(C)OC1CC=C(C)C (stereo not given) [FUMAGILLIN] | > 46 µM
23 | Cc1nc2c([nH]1)c(=O)n(C)c(=O)n2Cc1ccco1 [FURAFYLLINE] | > 46 µM
24 | O=C([O-])c1cc2cc(Cc3cccnc3)ccc2o1.[Na+] [FUREGRELATE SODIUM] | > 46 µM

Row | SMILES | IC50 of cell viability
25 | C/C(=C(/CCO)SSC[C@@H]1CCCO1)N(C=O)Cc1cnc(C)nc1N [FURSULTIAMINE HYDROCHLORIDE] | > 46 µM
26 | Cc1nc[nH]c1CC1CCc2c(C)c3ccccc3n2C1=O (stereo not given) [Fabesetron] | > 46 µM
27 | CC(C)\C1=C(/CN(C)[C@@H](C)CC2=CC=CC=C2)N(C)N(C3=CC=CC=C3)C1=O [Famprofazone] | > 46 µM
28 | c1ccc(CCNc2nc(-c3ccccc3)cs2)cc1 [Fanetizole] | > 46 µM
29 | C[C@@H](O)[C@@H]1C(=O)N2C(C(=O)O)=C([C@H]3CCCO3)SC12 (stereo not given in full) [Faropenem] | > 46 µM
30 | O=[S+]([O-])(c1cccc2cnccc12)N1CCCNCC1 [Fasudil hydrochloride] | > 46 µM
31 | Cc1nc(-c2ccc(OCC(C)C)c(C#N)c2)sc1C(=O)O [Febuxostat] | > 46 µM
32 | O=C(O)Cc1ccc(-c2ccccc2)cc1 [Felbinac] | > 46 µM
33 | CCOC(=O)\C1=C(/C)N\C(=C(/C1C2=CC=CC(=C2Cl)Cl)C(=O)OC)C (stereo not given) [Felodipine] | > 46 µM
34 | CN(C)c1ccc(/N=N/S(=O)(=O)[O-])cc1 [Fenaminosulf] | > 46 µM
35 | CCOP(=O)(NC(C)C)Oc1ccc(SC)c(C)c1 (stereo not given) [Fenamiphos] | > 46 µM
36 | Nc1nnnn1-c1ccccc1 [Fenamol] | > 46 µM
37 | Nc1ccc(/N=N/c2ccccc2)c(N)n1 [Fenazopiridina] | > 46 µM
38 | O=C(O)CCC(=O)c1ccc(-c2ccccc2)cc1 [Fenbufen] | > 46 µM
39 | COP(=S)(OC)Oc1cc(Cl)c(Cl)cc1Cl [Fenchlorphos] | > 46 µM
40 | O=C(O)Cc1ccccc1Oc1ccc(Cl)cc1Cl [Fenclofenac] | > 46 µM
41 | O=C(O)Cc1csc(-c2ccc(Cl)cc2)n1 [Fenclozic acid] | > 46 µM
42 | CC(Cc1ccccc1)NCCn1cnc2c1c(=O)n(C)c(=O)n2C (stereo not given) [Fenethylline] | > 46 µM
43 | NC(=O)NNc1ccccc1 [Fenicarbazida] | > 46 µM
44 | CNC[C@H](O)c1cccc(O)c1 [Fenilefrina] | > 46 µM
45 | CN1CC(=O)\N=C1\NC(=O)NC2=CC(=CC=C2)Cl [Fenobam] | > 46 µM
46 | CC(C)OC(=O)C(C)(C)Oc1ccc(C(=O)c2ccc(Cl)cc2)cc1 [Fenofibrate] | > 46 µM
47 | O=[S+]1([O-])OC(c2ccc(O)cc2)(c2ccc(O)cc2)c2ccccc21 [Fenolipuna] | > 46 µM
48 | C[C@H](C(=O)[O-])c1cccc(Oc2ccccc2)c1.C[C@H](C(=O)[O-])c1cccc(Oc2ccccc2)c1.O.O.[Ca+2] [Fenoprofen calcium salt dihydrate] | > 46 µM

Row | SMILES | IC50 of cell viability
49 | C[C@@H](Cc1ccc(O)cc1)NC[C@@H](O)c1cc(O)cc(O)c1 [Fenoterol hydrobromide] | > 46 µM
50 | c1ccc2c(c1)Nc1ccccc1S2 [Fenotiazina] | > 46 µM
51 | CC(COc1ccccc1)N(CCCl)Cc1ccccc1 (stereo not given) [Fenoxibenzamina] | > 46 µM
52 | COP(=S)(OC)Oc1ccc(SC)c(C)c1 [Fenthion (Baytex)] | > 46 µM
53 | O=C(O)Cc1sc(-c2ccccc2)nc1-c1ccc(Cl)cc1 [Fentiazac] | > 46 µM
54 | O=C(O)CC1=S=C(c2ccccc2)N=C1c1ccc(Cl)cc1 [Fentiazac] | > 46 µM
55 | Oc1ccc(Cl)cc1Sc1cc(Cl)ccc1O [Fenticlor] | > 46 µM
56 | C\C(C)=C\CC1C(=O)N(N(C1=O)C2=CC=CC=C2)C3=CC=CC=C3 [Feprazone] | > 46 µM
57 | O=C([O-])CN(CCN(CC(=O)[O-])CC(=O)[O-])CC(=O)[O-].[Fe+3].[Na+] [Feredato sodico] | > 46 µM
58 | CC(C)(C(=O)O)c1ccc(C(O)CCCN2CCC(C(O)(c3ccccc3)c3ccccc3)CC2)cc1 (stereo not given) [Fexofenadine] | > 46 µM
59 | COc1cccc2c1[C@@H]1CN(CCCCn3c(=O)[nH]c4c(sc5ncc(-c6ccccc6)nc54)c3=O)C[C@@H]1CO2 [Fiduxosin hydrochloride] | > 46 µM
60 | CC(C)(C)NC(=O)[C@@H]1CC[C@@H]2[C@@H]3CC[C@@H]4NC(=O)\C=C/[C@@]4(C)[C@H]3CC[C@@]12C [Finasteride] | > 46 µM
61 | COc1cc(O)cc(O)c1 [Flamenol] | > 46 µM
62 | O=C1/C=C(OC2=CC=CC=C12)/C3=CC=CC=C3 [Flavone] | > 46 µM
63 | C\C1=C(\OC2=C(C=CC=C2C(=O)OCCN3CCCCC3)C1=O)C4=CC=CC=C4 [Flavoxate hydrochloride] | > 46 µM
64 | CN1CCC(O)(c2ccc(F)cc2)C(C(=O)c2ccc(F)cc2)C1 (stereo not given) [Flazalone] | > 46 µM
65 | CN(C)CCC=C1C2=C(C=CC=C2)\C=C/C3=C1C=CC=C3 [Flexeril] | > 46 µM
66 | CO[C@@]1(NC(=O)CSC(F)F)C(=O)N2C(C(=O)O)=C(CSc3nnnn3CCO)CO[C@@H]21 [Flomoxef] | > 46 µM
67 | C[S+](=O)([O-])c1ccc([C@H](O)[C@H](CF)NC(=O)C(Cl)Cl)cc1 [Florfenicol] | > 46 µM
68 | CN1/C=C(/[S+](C)[O-])C(=O)C2=C1C=C(F)C=C2 (stereo not given) [Flosequinan] | > 46 µM
69 | CC1=C(C(=O)N[C@H]2[C@@H]3SC(C)(C)[C@H]([N@@]3C2=O)C(O)=O)C(=NO1)C4=C(Cl)C=CC=C4F [Floxacillin] | > 46 µM
70 | OC[C@H]1O[C@H](C[C@@H]1O)N2\C=C(F)/C(=O)NC2=O [Floxuridine] | > 46 µM

— the supplement of paper PMC3974653
